Consider eight molecules from patent publication US8119681B2, “2-[1-phenyl-5-hydroxy or methoxy-4alpha-methyl-hexahydrocyclopenta [ƒ]indazole-5-YL]ethyl phenyl derivatives as glucocorticoid receptor ligands” (Merck Sharp & Dohme Corp., priority 2006, dated 2012).

Test [1] has as its target T1, human GR (Homo sapiens, UniProt P04150).
T1 sequence (P04150 1-777): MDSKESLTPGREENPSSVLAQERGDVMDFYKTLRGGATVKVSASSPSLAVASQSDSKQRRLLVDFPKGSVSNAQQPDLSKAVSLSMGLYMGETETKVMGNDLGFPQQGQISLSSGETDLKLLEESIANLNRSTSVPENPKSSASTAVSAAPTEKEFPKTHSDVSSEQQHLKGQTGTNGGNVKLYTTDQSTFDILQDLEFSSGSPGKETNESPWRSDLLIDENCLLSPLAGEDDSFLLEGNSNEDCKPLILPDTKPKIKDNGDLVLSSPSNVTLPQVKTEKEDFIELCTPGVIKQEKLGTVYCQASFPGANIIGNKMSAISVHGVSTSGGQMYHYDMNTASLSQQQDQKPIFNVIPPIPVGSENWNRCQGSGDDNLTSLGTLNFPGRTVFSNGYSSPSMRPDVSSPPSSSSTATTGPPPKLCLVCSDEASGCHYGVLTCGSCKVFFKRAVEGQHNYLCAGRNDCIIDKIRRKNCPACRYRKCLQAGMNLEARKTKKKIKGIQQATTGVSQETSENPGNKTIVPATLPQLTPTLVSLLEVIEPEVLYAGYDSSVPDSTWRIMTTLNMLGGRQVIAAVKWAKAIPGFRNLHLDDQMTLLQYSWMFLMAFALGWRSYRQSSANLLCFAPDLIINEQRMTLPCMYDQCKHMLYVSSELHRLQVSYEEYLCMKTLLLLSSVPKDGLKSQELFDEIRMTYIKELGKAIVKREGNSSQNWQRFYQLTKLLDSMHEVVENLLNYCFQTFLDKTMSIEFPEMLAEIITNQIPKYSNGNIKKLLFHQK
The test can be described thus: Transrepression Assay (GITAR), TNFα-β-lactamase reporter gene in U937 cells. The format is cell-based. More on the design: U937 cells contain an endogenous glucocorticoid receptor (GR); endogenous in cells; host or cells: U937 cells stably transfected with the TNF-α promoter/β-lactamase reporter only. The conditions noted are these: for EC50: IP = inflection point, read-out: Transrepression U937 Cells GITAR IP; for GITAR > GRAMM % SEP: separation of GITAR Emax over GRAMMER Emax; for Emax: U-937. Put shortly: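 Reporter readout used CCF2-AM loading for 70–90 min at room temperature after overnight (~18 h, 37 °C) PMA (5 ng/ml final) and LPS (100 ng/ml final) stimulation of compound-treated (30–45 min) TNFα-β-lactamase U937 cells expressing native GR. Activity was normalised to 100 nM dexamethasone repression.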

The target of test [2] is T1, human GR. The test can be described thus: Trans-Activation Modulation of Glucocorticoid Receptor (GRAMMER), MMTV-LUC reporter gene. The format is cell-based. Set-up: endogenous in cells. The settings on record: Table 1, Emax relative to 300 nM dexamethasone.
Where [3] appears, read: 100 nM dexamethasone = 100% activity, read-out: maximal activity in the transrepression assay.
Where [4] appears, read: Table 1, U937 cells, activity repressed by 100 nM dexamethasone = 100%, read-out: Transrepression U937 Cells GITAR Emax (%).

Molecules are shown by their SMILES. Like-named read-outs stand apart in the source and are kept apart here.

Turning to `C[C@]12Cc3cnn(-c4ccc(F)cc4)c3C=C1CC[C@@]2(O)/C=C/c1ccccc1S(N)(=O)=O` [Example 160, 2-{(E)-2-[(4αS,5R)-1-(4-fluorophenyl)-5-hydroxy-4α-methyl-1,4,4α,5,6,7-hexahydrocyclopenta[f]indazol-5-yl]vinyl}benzenesulfonamide], the EC50 on human GR [1] (Table 1, U937 cells) came to 274 nM. For the same molecule, the “Transrepression U937 Cells GITAR Emax (%)” value at human GR [1] (Table 1, U937 cells, activity repressed by 100 nM dexamethasone = 100%) came to 72%. For the same molecule, at human GR [1] (Table 1), the “GITAR > GRAMM % SEP” value is on record as 42%. Also, at human GR [2], the “Transactivation A549 Cells GRAMMER Emax (%)” value was 30%.

For `C[C@]12Cc3cnn(-c4ccc(Cl)cc4)c3C=C1CC[C@@]2(O)CCc1cccc(F)c1C(N)=O` [Example 185, 2-{2-[(4αS,5R)-1-(4-chlorophenyl)-5-hydroxy-4α-methyl-1,4,4α,5,6,7-hexahydrocyclopenta[f]indazol-5-yl]ethyl}-6-fluorobenzamide], the EC50 at human GR [1] (Table 1, U937 cells) was determined as 59 nM. The “GITAR > GRAMM % SEP” value on human GR [1] (Table 1) was 41%. Besides, the values for the Emax at human GR [1] (setting [3]) and at human GR [1] (setting [4]) were 5 to 100% and 80%, respectively.

For `COc1cccc(CC[C@]2(O)CCC3=Cc4c(cnn4-c4ccc(F)cc4)C[C@@]32C)c1C(N)=O` [Example 189, 2-{2-[(4αS,5R)-1-(4-fluorophenyl)-5-hydroxy-4α-methyl-1,4,4α,5,6,7-hexahydrocyclopenta[f]indazol-5-yl]ethyl}-6-methoxybenzamide], at human GR [1] (Table 1, U937 cells), the EC50 is 23 nM. For the same molecule, the “GITAR > GRAMM % SEP” value on human GR [1] (Table 1) was found to be 31%. The Emax on human GR [1] (setting [3]) is 5 to 100%; at human GR [1] (setting [4]) it was 80%.

For the molecule `Cc1cccc(CC[C@]2(O)CCC3=Cc4c(cnn4-c4cccc(F)c4)C[C@@]32C)c1C(N)=O` [Example 191, 2-{2-[(4αS,5R)-1-(3-fluorophenyl)-5-hydroxy-4α-methyl-1,4,4α,5,6,7-hexahydrocyclopenta[f]indazol-5-yl]ethyl}-6-methylbenzamide], the EC50 at human GR [1] (Table 1, U937 cells) is 33 nM. Moreover, at human GR [1] (Table 1), the “GITAR > GRAMM % SEP” value stood at 29%. In addition, the Emax at human GR [1] (setting [3]) was 5 to 100%; on human GR [1] (setting [4]), 78%.

In the case of `C[C@]12Cc3cnn(-c4ccc(F)cc4)c3C=C1CC[C@@]2(O)CCc1cccc(F)c1CC(N)=O` [Example 194, 2-(2-fluoro-6-{2-[(4αS,5R)-1-(4-fluorophenyl)-5-hydroxy-4α-methyl-1,4,4α,5,6,7-hexahydrocyclopenta[f]indazol-5-yl]ethyl}phenyl)acetamide], the EC50 on human GR [1] (Table 1, U937 cells) amounted to 87 nM. In addition, at human GR [1] (Table 1), the “GITAR > GRAMM % SEP” value is reported as 41%. The results for the Emax at human GR [1] (setting [3]) and on human GR [1] (setting [4]) were 5 to 100% and 78%, respectively.

On to `C[C@]12Cc3cnn(-c4ccc(F)cc4)c3C=C1CC[C@@]2(O)CCc1cccc(Cl)c1CC(N)=O` [Example 197, 2-(2-chloro-6-{2-[(4αS,5R)-1-(4-fluorophenyl)-5-hydroxy-4α-methyl-1,4,4α,5,6,7-hexahydrocyclopenta[f]indazol-5-yl]ethyl}phenyl)acetamide], for which, on human GR [1] (Table 1, U937 cells), the EC50 is 138 nM. The “GITAR > GRAMM % SEP” value at human GR [1] (Table 1) is given as 21%. The Emax on human GR [1] (setting [3]) is 5 to 100%; at human GR [1] (setting [4]), 67%.

Turning to `CCC(O)(C(N)=O)c1ccccc1CC[C@]1(O)CCC2=Cc3c(cnn3-c3ccc(F)cc3)C[C@@]21C` (stereo partly drawn) [Example 199, 2-(2-{2-[(4αS,5R)-1-(4-fluorophenyl)-5-hydroxy-4α-methyl-1,4,4α,5,6,7-hexahydrocyclopenta[f]indazol-5-yl]ethyl}phenyl)-2-hydroxybutanamide], at human GR [1] (Table 1, U937 cells), the EC50 came to 77 nM. Moreover, the “GITAR > GRAMM % SEP” value at human GR [1] (Table 1) is reported as 32%. Besides, the values for the Emax on human GR [1] (setting [3]) and at human GR [1] (setting [4]) were 5 to 100% and 68%, respectively.

Consider `CC(C)C(O)(C(N)=O)c1ccccc1CC[C@]1(O)CCC2=Cc3c(cnn3-c3ccc(F)cc3)C[C@@]21C` (stereo partly drawn) [Example 201, 2-(2-{2-[(4αS,5R)-1-(4-fluorophenyl)-5-hydroxy-4α-methyl-1,4,4α,5,6,7-hexahydrocyclopenta[f]indazol-5-yl]ethyl}phenyl)-2-hydroxy-3-methylbutanamide], for which, on human GR [1] (Table 1, U937 cells), the EC50 came out at 40 nM. For the same molecule, the “GITAR > GRAMM % SEP” value on human GR [1] (Table 1) was 38%. Besides, the Emax at human GR [1] (setting [3]) was 5 to 100%; on human GR [1] (setting [4]), 78%.
